According to ChEMBL document CHEMBL3244184, “Synthesis of 5-azacytidine-6-13C and -6-14C” (J Med Chem, 1977):

What was measured:
[1] = Drug excretion in New Zealand white rabbit urine assessed as NSC-102816 equivalent excretion at 15 mg/kg, iv after 8 hrs by liquid scintillation counting; type: ADME, organism-based, Oryctolagus cuniculus; set-up: dose 15 mg/kg, route intravenous; conditions: in vivo
[2] = Drug excretion in New Zealand white rabbit bile assessed as NSC-102816 equivalent excretion at 15 mg/kg, iv after 8 hrs by liquid scintillation counting; type: ADME, organism-based, Oryctolagus cuniculus; set-up: dose 15 mg/kg, route intravenous; conditions: in vivo

N[14c]1ncn([C@@H]2O[C@H](CO)[C@@H](O)[C@H]2O)c(=O)n1
Drug excretion [1]: 35.3 %ID | Drug excretion [2]: 1 %ID

Nc1n[14cH]n([C@@H]2O[C@H](CO)[C@@H](O)[C@H]2O)c(=O)n1
Drug excretion [1]: 2.53 %ID | Drug excretion [2]: 0.88 %ID
